{"source": "ChEMBL document CHEMBL3351765", "about": "“Recent progress in sodium channel modulators for pain” (Bioorg Med Chem Lett, 2014)", "key": {"[1]": {"biological_target": "T1, Sodium channel protein type 9 subunit alpha (Homo sapiens, UniProt Q15858)", "T1 sequence (Q15858 whole entry)": "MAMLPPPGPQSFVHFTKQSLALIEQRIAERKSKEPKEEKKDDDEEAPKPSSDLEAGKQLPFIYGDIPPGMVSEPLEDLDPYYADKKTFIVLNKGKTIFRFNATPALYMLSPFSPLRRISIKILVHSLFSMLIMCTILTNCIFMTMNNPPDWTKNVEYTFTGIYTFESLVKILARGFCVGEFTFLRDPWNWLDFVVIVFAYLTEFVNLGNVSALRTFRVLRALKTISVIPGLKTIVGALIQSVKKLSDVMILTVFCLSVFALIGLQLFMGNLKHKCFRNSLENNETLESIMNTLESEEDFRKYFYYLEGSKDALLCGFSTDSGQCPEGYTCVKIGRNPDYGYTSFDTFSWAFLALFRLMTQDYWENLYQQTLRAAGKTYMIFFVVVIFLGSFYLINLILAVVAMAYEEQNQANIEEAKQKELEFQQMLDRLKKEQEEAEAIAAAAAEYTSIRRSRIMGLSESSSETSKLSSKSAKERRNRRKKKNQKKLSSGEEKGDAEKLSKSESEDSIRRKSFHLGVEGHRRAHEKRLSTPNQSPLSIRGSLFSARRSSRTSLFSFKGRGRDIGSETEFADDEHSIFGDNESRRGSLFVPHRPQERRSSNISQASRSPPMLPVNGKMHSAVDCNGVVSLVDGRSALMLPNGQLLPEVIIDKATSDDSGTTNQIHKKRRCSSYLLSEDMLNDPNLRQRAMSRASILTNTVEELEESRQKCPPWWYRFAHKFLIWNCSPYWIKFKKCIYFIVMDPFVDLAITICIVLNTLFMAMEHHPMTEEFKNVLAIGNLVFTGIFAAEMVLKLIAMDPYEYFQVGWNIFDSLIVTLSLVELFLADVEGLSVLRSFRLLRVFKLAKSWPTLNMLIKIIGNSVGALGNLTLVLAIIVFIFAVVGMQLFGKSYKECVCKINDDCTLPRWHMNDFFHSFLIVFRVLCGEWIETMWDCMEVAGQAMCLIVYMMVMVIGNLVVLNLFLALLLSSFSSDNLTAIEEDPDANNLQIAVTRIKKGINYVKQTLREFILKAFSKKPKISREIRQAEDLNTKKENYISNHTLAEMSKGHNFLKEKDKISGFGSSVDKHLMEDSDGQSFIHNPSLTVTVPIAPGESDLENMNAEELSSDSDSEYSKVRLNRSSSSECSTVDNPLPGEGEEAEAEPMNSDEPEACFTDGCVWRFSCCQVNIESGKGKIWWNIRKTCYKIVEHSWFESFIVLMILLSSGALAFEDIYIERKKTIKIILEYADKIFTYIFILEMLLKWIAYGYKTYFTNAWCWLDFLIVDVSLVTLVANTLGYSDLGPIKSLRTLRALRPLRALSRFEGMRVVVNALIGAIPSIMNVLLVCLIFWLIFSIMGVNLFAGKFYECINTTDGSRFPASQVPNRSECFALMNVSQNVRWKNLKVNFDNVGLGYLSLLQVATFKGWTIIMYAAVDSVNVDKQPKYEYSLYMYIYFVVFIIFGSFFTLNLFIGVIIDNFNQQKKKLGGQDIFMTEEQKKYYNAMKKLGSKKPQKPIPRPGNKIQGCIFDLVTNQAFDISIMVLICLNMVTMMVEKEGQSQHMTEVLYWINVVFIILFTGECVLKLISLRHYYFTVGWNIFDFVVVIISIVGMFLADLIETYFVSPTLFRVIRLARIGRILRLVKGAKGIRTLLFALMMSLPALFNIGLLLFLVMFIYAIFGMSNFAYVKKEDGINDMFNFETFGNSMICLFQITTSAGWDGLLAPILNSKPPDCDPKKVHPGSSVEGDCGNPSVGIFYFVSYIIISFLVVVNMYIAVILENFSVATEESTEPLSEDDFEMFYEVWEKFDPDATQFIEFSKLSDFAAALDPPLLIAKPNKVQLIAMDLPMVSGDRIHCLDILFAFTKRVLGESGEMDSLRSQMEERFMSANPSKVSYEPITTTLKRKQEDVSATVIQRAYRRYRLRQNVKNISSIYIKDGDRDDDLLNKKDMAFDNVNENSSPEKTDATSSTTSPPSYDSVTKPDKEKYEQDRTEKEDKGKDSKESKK", "experiment": "Inhibition of human Nav1.7 expressed in HEK cells by whole-cell patch-clamp technique", "assay_type": "cell-based, HEK293"}, "[2]": {"biological_target": "T2, Sodium channel protein type 5 subunit alpha (Homo sapiens, UniProt Q14524)", "T2 sequence (Q14524 whole entry)": "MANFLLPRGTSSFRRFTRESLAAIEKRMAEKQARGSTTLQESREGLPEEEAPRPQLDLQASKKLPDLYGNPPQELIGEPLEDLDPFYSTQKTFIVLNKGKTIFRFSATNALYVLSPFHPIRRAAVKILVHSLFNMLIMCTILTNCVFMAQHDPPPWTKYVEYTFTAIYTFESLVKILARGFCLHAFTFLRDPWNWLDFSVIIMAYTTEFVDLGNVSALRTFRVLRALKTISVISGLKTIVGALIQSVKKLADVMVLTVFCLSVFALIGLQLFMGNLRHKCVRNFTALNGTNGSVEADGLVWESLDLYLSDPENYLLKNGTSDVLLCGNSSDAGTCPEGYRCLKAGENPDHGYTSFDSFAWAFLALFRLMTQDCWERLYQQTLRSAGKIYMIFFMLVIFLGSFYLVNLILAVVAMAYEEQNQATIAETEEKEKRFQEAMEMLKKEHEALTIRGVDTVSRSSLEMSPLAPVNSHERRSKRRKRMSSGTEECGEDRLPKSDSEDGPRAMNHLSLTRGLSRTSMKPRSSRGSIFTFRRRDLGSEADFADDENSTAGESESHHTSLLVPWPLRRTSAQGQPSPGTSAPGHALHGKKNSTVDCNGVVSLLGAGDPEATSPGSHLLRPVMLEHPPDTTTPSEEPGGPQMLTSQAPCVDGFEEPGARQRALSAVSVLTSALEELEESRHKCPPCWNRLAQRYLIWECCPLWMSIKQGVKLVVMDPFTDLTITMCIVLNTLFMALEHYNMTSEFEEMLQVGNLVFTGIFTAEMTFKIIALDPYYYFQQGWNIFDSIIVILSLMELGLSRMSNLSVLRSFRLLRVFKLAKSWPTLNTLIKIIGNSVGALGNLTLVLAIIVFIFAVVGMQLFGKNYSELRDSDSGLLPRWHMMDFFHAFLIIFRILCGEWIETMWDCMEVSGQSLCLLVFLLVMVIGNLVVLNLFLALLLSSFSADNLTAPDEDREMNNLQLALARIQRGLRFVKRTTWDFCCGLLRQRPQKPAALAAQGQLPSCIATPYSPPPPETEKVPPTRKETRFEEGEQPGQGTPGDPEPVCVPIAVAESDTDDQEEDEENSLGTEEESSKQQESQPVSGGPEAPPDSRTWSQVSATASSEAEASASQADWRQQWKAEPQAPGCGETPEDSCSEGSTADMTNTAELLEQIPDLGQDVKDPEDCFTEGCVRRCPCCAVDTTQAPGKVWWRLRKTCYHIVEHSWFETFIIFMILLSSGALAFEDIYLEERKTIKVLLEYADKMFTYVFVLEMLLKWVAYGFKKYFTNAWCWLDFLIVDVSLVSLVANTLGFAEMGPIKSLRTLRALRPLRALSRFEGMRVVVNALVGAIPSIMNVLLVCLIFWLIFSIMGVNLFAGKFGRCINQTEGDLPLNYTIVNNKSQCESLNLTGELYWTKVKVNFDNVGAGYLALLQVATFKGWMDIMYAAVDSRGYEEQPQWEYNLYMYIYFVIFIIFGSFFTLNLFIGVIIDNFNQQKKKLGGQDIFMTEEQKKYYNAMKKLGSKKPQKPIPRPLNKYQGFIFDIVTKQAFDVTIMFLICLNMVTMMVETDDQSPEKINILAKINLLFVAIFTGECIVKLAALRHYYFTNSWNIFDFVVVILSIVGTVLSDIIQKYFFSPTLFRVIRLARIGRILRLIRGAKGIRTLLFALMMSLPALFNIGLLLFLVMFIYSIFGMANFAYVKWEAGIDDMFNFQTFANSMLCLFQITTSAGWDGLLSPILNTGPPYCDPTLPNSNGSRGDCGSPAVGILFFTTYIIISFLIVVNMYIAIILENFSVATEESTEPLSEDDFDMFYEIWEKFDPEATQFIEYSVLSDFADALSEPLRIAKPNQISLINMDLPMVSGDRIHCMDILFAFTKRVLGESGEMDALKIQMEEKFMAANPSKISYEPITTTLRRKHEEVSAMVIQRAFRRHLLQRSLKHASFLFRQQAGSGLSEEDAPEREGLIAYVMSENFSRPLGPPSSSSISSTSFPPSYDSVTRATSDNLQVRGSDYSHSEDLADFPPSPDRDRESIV", "experiment": "Inhibition of Nav1.5 (unknown origin)"}, "[3]": {"biological_target": "T1, Sodium channel protein type 9 subunit alpha", "experiment": "Inhibition of human Nav1.7 expressed in HEK293 cells by FLIPR method", "assay_type": "cell-based"}, "[4]": {"biological_target": "T1, Sodium channel protein type 9 subunit alpha", "experiment": "Inhibition of human Nav1.7 expressed in HEK293 cells by electrophysiology method", "assay_type": "cell-based"}, "HEK293": {"system": "HEK293", "experiment": "Selectivity ratio of IC50 for human Nav1.5 to IC50 for human Nav1.7 expressed in HEK293 cells", "assay_type": "cell-based"}, "[5]": {"biological_target": "T1, Sodium channel protein type 9 subunit alpha", "experiment": "Inhibition of human Nav1.7 expressed in HEK293 cells […] by QPatch method", "assay_type": "cell-based"}, "[6]": {"biological_target": "T1, Sodium channel protein type 9 subunit alpha", "experiment": "Inhibition of human Nav1.7 expressed in HEK cells by patch-clamp method", "assay_type": "cell-based, HEK293"}, "[7]": {"biological_target": "T1, Sodium channel protein type 9 subunit alpha", "experiment": "Inhibition of Nav1.7 (unknown origin)"}, "[8]": {"biological_target": "T2, Sodium channel protein type 5 subunit alpha", "experiment": "Inhibition of Nav1.5 (unknown origin) expressed in HEK293 cells by IonWorks patch-clamp method", "assay_type": "cell-based"}, "[9]": {"biological_target": "T1, Sodium channel protein type 9 subunit alpha", "experiment": "Inhibition of Nav1.7 (unknown origin) expressed in HEK293 cells by PatchXpress method", "assay_type": "cell-based"}}}
{"smiles": "CC1(COc2ccc(-n3nc(C4CC4)c4cc(C(=O)NS(C)(=O)=O)ccc43)cn2)CC1", "values": [{"measurement": "IC50", "setting": "[1]", "value": 130, "unit": "nM"}]}
{"smiles": "Nc1noc2ccc(-c3cc(Cl)ccc3Oc3cc(F)c(S(=O)(=O)Nc4ncns4)cc3F)cc12", "values": [{"measurement": "IC50", "setting": "[2]", "value": "> 1000", "unit": "nM"}]}
{"smiles": "CN(C)c1ccc(C(=O)NC2CC23CCN(c2ccccc2)CC3)c2ccccc12", "note": "(centres undefined)", "values": [{"measurement": "IC50", "setting": "[3]", "value": 237, "unit": "nM"}]}
{"smiles": "O=C(NCC1CCCCN1)c1ccc(Oc2cc(C(F)(F)F)cc(C(F)(F)F)c2)cc1", "note": "(centres undefined)", "values": [{"measurement": "IC50", "setting": "[3]", "value": 1150, "unit": "nM"}]}
{"smiles": "NC(=O)c1cnc(-c2ccc(Oc3cc(F)cc(Cl)c3)cc2)nc1[C@@H](O)CO", "values": [{"measurement": "Ki", "setting": "[4]", "value": 27, "unit": "nM"}, {"measurement": "IC50", "setting": "[3]", "value": 67, "unit": "nM"}]}
{"smiles": "Cc1oc2nc(-c3ccccc3Cl)nn2c1CNCCc1ccccc1Cl", "values": [{"measurement": "IC50", "setting": "[3]", "value": 620, "unit": "nM"}]}
{"smiles": "CCOc1ncccc1-c1cc(C(=O)NS(C)(=O)=O)ccc1Oc1ccc(Cl)c(C(F)(F)F)c1", "values": [{"measurement": "IC50", "setting": "[1]", "value": 35, "unit": "nM"}]}
{"smiles": "CCCCCN1C(=O)COCC1c1cncc(-c2ccc(OC(F)(F)F)cc2)c1", "note": "(centres undefined)", "values": [{"measurement": "IC50", "setting": "[3]", "value": 770, "unit": "nM"}]}
{"smiles": "C[C@H](c1ccccc1C1(F)CNC1)n1c(=O)oc2cc(S(=O)(=O)Nc3nccs3)c(F)cc21", "values": [{"measurement": "Ratio IC50", "setting": "HEK293", "value": 5540}]}
{"smiles": "Cc1ccc(OCC(C)C)c(-c2cccc([C@H]3CC[C@]4(CCN(C)C4=O)N3)c2)c1", "values": [{"measurement": "IC50", "setting": "[5]", "value": 398, "unit": "nM"}]}
{"smiles": "COc1cc(C(=O)N2CCC3(CC2)c2ccc(C(F)(F)F)n2CCN3C)ccc1OC(C)C", "values": [{"measurement": "IC50", "setting": "[6]", "value": "< 2000", "unit": "nM"}]}
{"smiles": "CCOC1CC(c2scnc2C)OC2(CCN(C(=O)c3ccc(OC(C)C)c(C)c3)CC2)C1", "note": "(centres undefined)", "values": [{"measurement": "IC50", "setting": "[6]", "value": "< 2000", "unit": "nM"}]}
{"smiles": "O=S(=O)(Nc1ncns1)c1cc(F)c(OC[C@@H]2CNCC[C@H]2c2ccc(Cl)cc2)cc1F", "values": [{"measurement": "IC50", "setting": "[7]", "value": 3.3, "unit": "nM"}]}
{"smiles": "O=S(=O)(Nc1ncns1)N1CCc2c(cccc2-c2ccc(C(F)(F)F)cc2C2=CCNCC2)C1", "values": [{"measurement": "IC50", "setting": "[8]", "value": "> 10000", "unit": "nM"}]}
{"smiles": "O=S(=O)(Nc1ncns1)c1ccc2c(c1)OCCN2c1ccc(C(F)(F)F)cc1Cl", "values": [{"measurement": "IC50", "setting": "[8]", "value": "> 10000", "unit": "nM"}]}
{"smiles": "Cn1cc(-c2ccc(C(F)(F)F)cc2-c2cn[nH]c2)c2ccc(S(=O)(=O)Nc3ncns3)cc21", "values": [{"measurement": "IC50", "setting": "[8]", "value": "> 10000", "unit": "nM"}, {"measurement": "IC50", "setting": "[9]", "value": 38, "unit": "nM"}]}
{"smiles": "COc1cc(C(=O)N2CCC3(CC2)CN(CC(F)F)CC(c2ccccn2)O3)ccc1OC(C)C", "note": "(centres undefined)", "values": [{"measurement": "IC50", "setting": "[6]", "value": "< 2000", "unit": "nM"}]}
